Laboratory results from patent US20260256909A1, “COMBINATION OF A BTN3A ACTIVATING ANTIBODY, A BCL2 INHIBITOR AND HYPOMETHYLATING AGENT FOR USE IN TREATING CANCER” (Imcheck Therapeutics, priority 2022, published 2026).
Read-outs that look alike come from different tables or passages of the source.

How the values were obtained:
Format in all cases: cell-based, human
Vγ9Vδ2 T cells = assay: Survival of Vγ9Vδ2 T cells in HD-PBMC (Caspase3/7 and dead cell marker, flow cytometry); conditions: HD-PBMC, 48 h; for CC50: in presence of isotype control (hIgG1S 1 μg/mL)
Method: The effect of ICT01 on the survival of Vγ9Vδ2 T cells upon treatment with Bcl-2 family member inhibitors was assessed in Peripheral Blood Mononuclear Cells from Healthy Donors (HD-PBMC) using the apoptotic marker Caspase3/7 and a dead cell marker in flow cytometry analysis.
Peripheral Blood Mononuclear Cells (PBMC) were isolated by Ficoll density gradient centrifugation of peripheral blood (EDTA-buffy coats) from healthy donors (HD, n=4-6), cultured in PBMC medium (RPMI 1640 Medium supplemented with 10% Fetal Bovine Serum (FBS), 1% Penicillin/Streptomycin and 1 mM Sodium Pyruvate) and treated with ICT01 or its isotype control (hIgG1S) used at 1 μg/mL in the presence or absence of increasing concentrations of Venetoclax (0-0.1 μM), 5-Azacytidine (0-0.4 μM) or the combination, or ABT-737 (0-1.875 μM), Navitoclax (0-1.875 μM) or MIK665 (0-1.875 μM). Cells were harvested on day 2, centrifuged at 1800 rpm for 5 minutes and then incubated 10 minutes at room temperature (RT) with 25 μl of FcR blocking reagent (Miltenyi Biotec) before adding 25 μL of the following antibody mix prepared in PBS+2% FBS+2 mM EDTA (FACS buffer): anti-CD4-BUV395, CD56-BV421, Vd2-PE, CD3-PE-CF594 and CD8-A700 antibodies for the identification of immune subsets, anti-CD25-BV650 and CD69-APC antibodies were added to monitor activation status of Vγ9Vδ2 T cells, and a viability marker (LIVE/DEAD™ Fixable Dead Cell Stain) was added to distinguish live from dead cells. Cells were incubated 20 minutes at room temperature (RT) and washed 2 times with FACS buffer. A Caspase3/7 Green detection reagent (ThermoFisher) was added to determine apoptosis and cells were incubated for 30 minutes at RT before flow cytometry analysis.
In a similar experiment, freshly isolated PBMC were stimulated with ICT01 or its isotype control hIgG1S for 1 day prior to a 2 day-treatment with Venetoclax (FIG. 3a). The number of live Vγ9Vδ2 T cells was assessed by flow cytometry at the end of the incubation time.

KG1a AML cells = assay: Killing of KG1a AML cells in co-culture with HD-PBMC (flow cytometry); conditions: for KG1a cell death / reduction of living KG1a cells as compared to control: alone or with ICT01 0.1 μg/mL, HD-PBMC ratio 5:1, 2 days
Method: A) Sensitivity of KG1a cell line to Venetoclax, 5-Azacytidine or the combination. […] N=2 experiments. B) Mean±SEM relative number of Live KG1a AML cells monitored by flow cytometry after 3 days of co-culture with HD-PBMC (E:T ratio 25:1) treated with ICT01 (black) or its isotype control (hIgG1S, light grey) at 0.1 or 1 μg/mL. N=6, each dot represents one healthy donor. C) Schematic representation of treatment schedule for killing of KG1a AML cells by HD-PBMC. D) Relative number of Live KG1a AML cells (Mean±SEM) (left) and Frequency of Live KG1a AML cell relative to no Venetoclax or 5-Azacytidine treatment (Mean±SEM) (right) after 3 days of co-culture with HD-PBMC in presence of ICT01 (black) or its isotype control (hIgG1S, light grey) and treatment with Venetoclax, 5-Azacytidine or the combination. N=6, each dot represents one healthy donor, * p<0.05, Wilcoxon test.
KG1a cells were co-cultured with HD-PBMC at ratio 5:1 in presence of m20.1 or isotype control (0.1 μg/mL). After 6 hrs, indicated concentrations of Venetoclax, 5-Azacytidine or the combination were added to the culture. Relative number of live KG1a was monitored after 48 hrs by flow cytometry. […] N=6, each dot represents one healthy donor, * p<0.05, ** p<0.01, *** p<0.001, **** p<0.0001, 2 way ANOVA.
(§1) KG1a or MOLM14 AML cell lines were co-cultured with HD-PBMC at ratio 5:1 in presence of ICT01 or isotype control (0.1 μg/mL). After 6 hrs, indicated concentrations of ABT-737, Navitoclax or MIK665 were added to the culture. A) Relative numbers of live KG1a cells (Mean±SEM) after 2 days of co-culture with HD-PBMC in presence of ICT01 (black) or its isotype control hIgG1S (light grey) and treatment with indicated concentration of ABT-737. B) Relative numbers of live KG1a cells (Mean±SEM) after 2 days of co-culture with HD-PBMC in presence of ICT01 (black) or its isotype control hIgG1S (light grey) and treatment with indicated concentration of Navitoclax. C) Relative numbers of live MOLM14 cells (Mean±SEM) after 2 days of co-culture with HD-PBMC in presence of ICT01 (black) or its isotype control hIgG1S (light grey) and treatment with indicated concentration of MIK665. N=6 HD, each dot represents one healthy donor, * p<0.05, 2 way ANOVA.
The effect of Venetoclax and 5-Azacytidine on anti-BTN3A antibodies-induced killing of AML cell lines by Vγ9Vδ2 T cells was assessed by measuring the relative number of surviving target cells in a HD-PBMC-AML cell co-culture using flow cytometry.
Then, KG1a AML cells were stained with CellTrace CFSE Proliferation dye (ThermoFisher) to allow for specific detection by flow cytometry, counted, put into a co-culture with thawed HD-PBMC and treated with the anti-BTN3A mAbs ICT01 or m20.1 or their respective isotype controls (hIgG1S or mIgG1) in PBMC medium (RPMI 1640 Medium supplemented with 10% Fetal Bovine Serum (FBS) and 1 mM Sodium Pyruvate). On day one of culture, increasing concentrations of Venetoclax (0-0.4 μM), 5-Azacytidine (0-0.4 μM) or the combination were added. Cells were harvested on day 3 of co-culture, centrifuged at 1800 rpm for 5 minutes and then incubated 10 minutes at room temperature (RT) with 25 μl of FcR blocking reagent (Miltenyi Biotec) before adding 25 μL of the following antibody mix prepared in PBS+2% FBS+2 mM EDTA (FACS buffer): anti-CD56-BV421, CD19-BV421, CD14-BV785, Tyb-PE and CD3-AF700 antibodies for the identification of immune subsets, and a viability marker (LIVE/DEAD™ Fixable Dead Cell Stain) was added to distinguish live and dead cells. Cells were incubated 20 minutes at room temperature, washed once in FACS buffer and once in AnnexinV staining buffer. An AnnexinV-APC probe mixed with CountBright Absolute Counting Beads (Invitrogen) was added to determine apoptosis and relative cell numbers, followed by 15 minutes incubation at RT before flow cytometry analysis. […]

MOLM14 cells = assay: Killing of MOLM14 AML cells in co-culture with HD-PBMC (flow cytometry); conditions: alone or with ICT01 0.1 μg/mL, HD-PBMC ratio 5:1, 2 days
Method: as §1
The effect of the three Bcl-2 family member inhibitors ABT-737, Navitoclax and MIK665, on ICT01-induced killing of AML cell lines by Vγ9Vδ2 T cells was assessed by measuring the relative number of surviving target cells in a HD-PBMC-AML cells co-culture using flow cytometry.
For assays using ABT-737 or Navitoclax, KG1a cells were used. […] Therefore, MOLM14 cells, which express MCL-1, were used in killing assays assessing the activity of ICT01 combined with MIK665.

[1] = in presence of ICT01 (1 μg/mL), read-out: EC50 of Vγ9Vδ2 T cell death
[2] = Homo sapiens, T-cell, read-out: EC50 of Vγ9Vδ2 T cell death
[3] = Homo sapiens, T-cell, inhibitor alone (FIG. 2a), read-out: EC50 of apoptosis and death of Vγ9Vδ2 T cells
[4] = Bcl-2 family inhibitor at 0.25 μM
[5] = Bcl-2 family inhibitor at 0.5 μM

Compound | EC50 (Vγ9Vδ2 T cells; [1]) [nM] | CC50 (Vγ9Vδ2 T cells; [2]) [nM] | EC50 (Vγ9Vδ2 T cells; [3]) [nM] | KG1a cell death / reduction of living KG1a cells as compared to control (KG1a AML cells; [4]) | KG1a cell death / reduction of living KG1a cells as compared to control (KG1a AML cells; [5]) | sensitivity of KG1a to MIK665 treatment (KG1a AML cells; cell line does not express MCL-1) | cell death / reduction of living MOLM14 cells as compared to control (MOLM14 cells; MIK665 at 0.025 μM) | cell death / reduction of living MOLM14 cells as compared to control (MOLM14 cells; MIK665 at 0.05 μM)
CN(C)CC[C@H](CSc1ccccc1)Nc1ccc(S(=O)(=O)NC(=O)c2ccc(N3CCN(Cc4ccccc4-c4ccc(Cl)cc4)CC3)cc2)cc1[N+](=O)[O-] [ABT-737] | 460 | 230 | 240 | ~ 34% | ~ 54% |  |  | 
COc1ccccc1-c1nccc(COc2ccccc2C[C@@H](Oc2ncnc3sc(-c4ccc(F)cc4)c(-c4ccc(OCCN5CCN(C)CC5)c(Cl)c4C)c23)C(=O)O)n1 [MIK665, (R)-2-((5-(3-chloro-2-methyl-4-(2-(4-methylpiperazin-1-yl)ethoxy)phenyl)-6-(4-fluorophenyl)thieno[2,3-d]pyrimidin-4-yl)oxy)-3-(2-((2-(2-methoxyphenyl)pyrimidin-4-yl)methoxy)phenyl)propanoic acid] | 780 | 240 | 240 |  |  | completely resistant | ~ 52% | ~ 72%
CC1(C)CCC(c2ccc(Cl)cc2)=C(CN2CCN(c3ccc(C(=O)NS(=O)(=O)c4ccc(N[C@H](CCN5CCOCC5)CSc5ccccc5)c(S(=O)(=O)C(F)(F)F)c4)cc3)CC2)C1 [Navitoclax, 4-[4-[[2-(4-chlorophenyl)-5,5-dimethylcyclohexen-1-yl]methyl]piperazin-1-yl]-N-[4-[[(2R)-4-morpholin-4-yl-1-phenylsulfanylbutan-2-yl]amino]-3-(trifluoromethylsulfonyl)phenyl]sulfonylbenzamide] | 200 | 160 | 160 | ~ 51% | ~ 71% |  |  | 
